Data: US8361734B2, “Xanthurenic acid derivative pharmaceutical compositions and methods related thereto” (Naturon, Inc., priority 2004, dated 2013)

Assays:
Type in all cases: in vivo
[1] = system: normal Sprague Dawley rat; experiment: Natriuretic response (Na+ and K+ urine excretion) after oral administration in a normal Sprague Dawley rat
Protocol: A female Sprague Dawley rat (250 g) was anesthetized lightly with ether and a urethra catheter was inserted using KY jelly and 2% lidocaine as a lubricant. The rat was restrained in a modified Plexiglas tube so that urine could be collected in 1.5-mL microcentrifuge tubes. No saline infusion was administered. Synthetic xanthurenic acid 8-O-β-D-glucoside was injected with a feeding needle at the time indicated in a 1-mL volume of water over the course of 1 minute. […] The tubes were centrifuged at 14,000 rpm to separate any RBC's from the urine. Na^+ and K^+ concentrations in the urine were measured with respective ion selective electrodes. The Na^+ and K^+ excretion rates were calculated by: (vol of urine/time of collection period)×(ion urine concentration).
A female Sprague Dawley rat (250 g) was anesthetized lightly with ether and a urethra catheter was inserted using KY jelly and 2% lidocaine as a lubricant. The rat was restrained in a modified Plexiglas tube so that urine could be collected in 1.5-mL microcentrifuge tubes. No saline infusion was administered. Xanthurenic acid 8-O-sulfate was injected with a feeding needle at the time indicated in a 1-mL volume of water over the course of 1 minute. The tubes were centrifuged at 14,000 rpm to separate any RBC's from the urine. Na^+ and K^+ concentrations in the urine were measured with respective ion selective electrodes. The Na^+ and K^+ excretion rates were calculated by: (vol of urine/time of collection period)×(ion urine concentration).

[2] = system: uremic Sprague Dawley rat; experiment: Natriuretic response (Na+ and K+ urine excretion) after i.v. administration in a uremic Sprague Dawley rat
From the text: Female Sprague-Dawley rat, weighing 225 g, was made uremic by tying off one kidney and 30-50% of the second kidney. Two weeks later the rat was ready to test for natriuretic activity. The rat was anesthetized lightly with ether and a tail vein catheter was placed using PE10 tubing. Additionally, a urethra catheter was inserted using KY jelly and 2% lidocaine as a lubricant. The rat was restrained in a modified Plexiglas tube so that urine could be collected in 1.5-mL microcentrifuge tubes. Saline infusion started at time zero at 0.02 mL/min for the length of the assay. The same i.v. catheter was used to inject isolated xanthurenic acid 8-O-β-glucoside at the time indicated in a 1-mL volume in saline over the course of 10 minutes. […] The tubes were centrifuged at 14,000 rpm to separate any RBC's from the urine. Na^+ and K^+ concentrations in the urine were measured with respective ion selective electrodes. The Na^+ and K^+ excretion rates were calculated by: (vol of urine/time of collection period)×(ion urine concentration).
A female Sprague-Dawley rat, weighing 225 g, was made uremic by tying off one kidney and 30-50% of the second kidney. Two weeks later the rat was ready to test for natriuretic activity. The rat was anesthetized lightly with ether and a tail vein catheter was placed using PE10 tubing. Additionally, a urethra catheter was inserted using KY jelly and 2% lidocaine as a lubricant. The rat was restrained in a modified Plexiglas tube so that urine could be collected in 1.5-mL microcentrifuge tubes. Saline infusion started at time zero at 0.02 mL/min for the length of the assay. The same i.v. catheter was used to inject the test compound. Isolated xanthurenic acid 8-O-sulfate, 2 μg, was injected at the time indicated in a 1 mL volume in saline over the course of 10 minutes. Then saline infusion was returned to 0.02 mL/min for the duration of the assay. The tubes were centrifuged at 14,000 rpm to separate any RBC's from the urine. Na^+ and K^+ concentrations in the urine were measured with respective ion selective electrodes. The Na^+ and K^+ excretion rates were calculated by: (vol of urine/time of collection period)×(ion urine concentration).

[3] = system: normal Sprague Dawley rat; experiment: Natriuretic response (Na+ and K+ urine excretion) after i.v. administration in a normal Sprague Dawley rat; settings: for natriuretic response (Na+ excretion): 2 μg i.v., FIGS. 1-4
Protocol: A female Sprague Dawley rat (250 g) was anesthetized lightly with ether and a tail vein catheter was placed using PE10 tubing. Additionally, a urethra catheter was inserted using KY jelly and 2% lidocaine as a lubricant. The rat was restrained in a modified Plexiglas tube so that urine could be collected in 1.5-mL microcentrifuge tubes. Saline infusion started at time zero at 0.02 mL/min for the duration of the assay. The same i.v. catheter was used to inject the test compound. Synthetic xanthurenic acid 8-O-β-D-glucoside, 2 μg, was injected at the time indicated in a 1-mL volume in saline over the course of 10 minutes. The tubes were centrifuged at 14,000 rpm to separate any RBC's from the urine. Na^+ and K^+ concentrations in the urine were measured with respective ion selective electrodes. The Na^+ and K^+ excretion rates were calculated by: (vol of urine/time of collection period)×(ion urine concentration). […] Given an extracellular volume of 50 mL in a 250-g rat, the concentration of the test compound was […], a possible minimum dose.
A female Sprague Dawley rat (250 g) was anesthetized lightly with ether and a tail vein catheter was placed using PE10 tubing. Additionally, a urethra catheter was inserted using KY jelly and 2% lidocaine as a lubricant. The rat was restrained in a modified Plexiglas tube so that urine could be collected in 1.5-mL microcentrifuge tubes. Saline infusion started at time zero at 0.02 mL/min for the length of the assay. The same i.v. catheter was used to inject the test compound. Synthetic xanthurenic acid 8-O-β-D-glucoside, 10 μg i.v. was injected at the time indicated in a 1-mL volume in saline over the course of 10 minutes. At the indicated time the saline infusion was increased tenfold to 0.2 mL/min for ten minutes and returned to 0.02 mL/min for the duration of the assay. The tubes were centrifuged at 14,000 rpm to separate any RBC's from the urine. Na^+ and K^+ concentrations in the urine were measured with respective ion selective electrodes. The Na^+ and K^+ excretion rates were calculated by: (vol of urine/time of collection period)×(ion urine concentration).

[4] = i.v. administered sulfate, FIG. 19

O=C(O)c1cc(=O)c2cccc(OS(=O)(=O)O)c2[nH]1 [xanthurenic acid 8-O-sulfate, Xanthurenic Acid 8-O-sulfate]
Na+ urine concentration ([1]; 20 ug oral, synthetic sulfate, normal rat): below 50 mM
natriuretic response ([1]; 20 ug oral, synthetic sulfate, normal rat, FIGS. 21-24): not orally active
Na+ urine concentration after the increase [2, 4]: 160 mM
Na+ urine concentration before the increase [2, 4]: 60 mM
time until natriuresis approached control levels ([2]; isolated sulfate 2 μg i.v., uremic rat): ≤ 70 min
natriuretic response ([2]; isolated sulfate 2 μg i.v., uremic rat, FIGS. 17-20): caused sustained natriuretic response
time to peak of natriuresis ([2]; isolated sulfate 2 μg i.v., uremic rat, FIGS. 17 and 18): ≤ 30 min
K+ excretion ([2]; isolated sulfate 2 μg i.v., uremic rat, FIGS. 18 and 19): did not increase

O=C(O)c1cc(=O)c2cccc(O[C@@H]3OC(CO)[C@@H](O)[C@H](O)C3O)c2[nH]1 (stereo partly drawn) [xanthurenic acid 8-O-β-D-glucoside, Xanthurenic acid 8-O-β-D-glucoside]
natriuretic response (Na+ excretion) ([3]; synthetic compound, normal rat): caused a sustained natriuretic response
Na+ excretion rate before increase of saline infusion ([3]; 10 μg i.v., saline 0.02 mL/min, FIG. 6): 2 uEq/min
Na+ excretion rate after saline infusion increased tenfold ([3]; 10 μg i.v., saline 0.2 mL/min for 10 minutes, FIG. 6): 10 uEq/min
time after administration at which urine production decreased ([3]; 10 μg i.v., saline infusion 0.02 mL/min): 140 min
K+ excretion ([3]; 10 μg i.v., synthetic compound, normal rat): did not increase
natriuretic response ([3]; 10 μg i.v., synthetic compound, normal rat, FIGS. 5-8): caused a sustained natriuretic response
natriuresis ([3]; synthetic glucoside given subsequently to xanthurenic acid 2 ug i.v., normal rat): did cause natriuresis
natriuretic response ([1]; 10 μg oral, synthetic compound, normal rat, FIGS. 9-12): orally active
Na+ urine concentration reached ([1]; glucoside oral, normal rat, FIG. 11): 160 mM
K+ excretion ([1]; pretreatment with glucoside 10 μg oral followed by furosemide 100 μg oral, FIG. 10): did not increase K^+ excretion
furosemide-induced K+ excretion ([1]; pretreatment with glucoside 10 μg oral, furosemide 100 μg oral): inhibited
time of peak Na+ excretion ([2]; isolated glucoside 3 μg i.v., uremic rat, FIG. 13): 70 min
natriuretic response ([2]; isolated glucoside 3 μg i.v., uremic rat, FIGS. 13-16): caused a sustained natriuretic response
K+ excretion ([2]; isolated glucoside 3 μg i.v., uremic rat, FIGS. 14 and 15): did not increase
K+ excretion after furosemide ([2]; pretreatment with isolated glucoside 3 μg i.v. followed by furosemide 20 ug i.v., uremic rat, FIGS. 14 and 15): prevented the typical increase in K^+ excretion

O=C(O)c1cc(O)c2cccc(O)c2n1 [xanthurenic acid]
natriuretic response (Na+ excretion) ([3]; synthetic compound, normal rat): did not increase Na^+ excretion
